Patent US20050100998A1 (priority 2000, published 2005)
Entries after “also recorded” stand apart in the source; their conditions may differ.

How the values were obtained:
[1] = biological target: T1, UMP-CMP kinase (Homo sapiens, UniProt P30085); experiment: Enzymatic activity assay (NMP phosphorylation, TLC of radiolabelled products); assay type: biochemical; details: for phosphorylation of the NMP as substrate (phosphate acceptor), in words: lysates of transfected cells vs vector-transfected cells, FIG. 5A; for ability of the NTP to act as phosphate donor (CDP formed), in words: NTP varied
T1 construct: This cDNA codes for a predicted 196 amino-acid protein; expressed in transfected cells; host or cells: HEK 293 or COS-7 cells transiently transfected with pRc/CMV carrying the UMP-CMP kinase cDNA; crude lysate used
T1 sequence (P30085 1-196): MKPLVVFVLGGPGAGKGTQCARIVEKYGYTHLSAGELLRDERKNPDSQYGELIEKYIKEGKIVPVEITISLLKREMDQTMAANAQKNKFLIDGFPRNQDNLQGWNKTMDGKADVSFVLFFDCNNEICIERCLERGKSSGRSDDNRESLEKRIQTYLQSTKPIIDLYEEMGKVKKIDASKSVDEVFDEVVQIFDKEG
Method: Tests were conducted on the enzyme produced by the cDNA.
Since many NMP kinases phosphorylate multiple types of NMPs with varying relative kinetics, a variety of NMPs were tested as substrates.
The most preferred phosphate donor of the kinase was next investigated. […] The amount of CDP formed indicates the ability of each NTP to act as a phosphate donor.
Cell lysates (25 μg total protein) prepared as described for Western blot were added to the following reaction mixture: 83 mM tris-HCl (pH 8.0), 3.3 mM MgCl2, 0.17 M KCl, 6.7 mM NTP, 6.7 mM NMP and 0.1 μCi of the indicated [^3H]-NU (60.4 mCi/mmol). The reaction was carried out at 37° C. for 6 min and terminated with an equal volume of 2 M formic acid. Unlabeled NDP was added (6.7 mM final concentration) and the reactions were dried under a steam of nitrogen. The products were resuspended in distilled H2O and analyzed by thin layer chromatography.
Chromatography was performed by ascending development (dry start) in closed plexiglass chambers at room temperature using 0.25 M KH2PO4 (pH 3.4) as described previously. […] The products were visualized under UV light and identified by co-migration with authentic nucleotides. Spots corresponding to different nucleotides were scraped from the plate and radioactive reaction products were quantified with a multi-purpose liquid scintillation counter.

[2] = biological target: T1, UMP-CMP kinase; details: Mol. Pharmacol. 56:562-569 (1999), ATP as donor, 30 min; cited from earlier work
[3] = test system: HL-60 cells; experiment: RT-PCR of UMP-CMP kinase expression and phenotype in differentiating HL-60 cells; assay type: cell-based, human; details: HL-60 cells treated with differentiating agent
From the text: The possibility that UMP-CMP kinase was developmentally regulated as monocytes proceed toward the macrophage phenotype was also investigated. To assess this, human monocytes were isolated and cultered for 10 days as they differentiated into macrophages. RNA was isolated on the day of cell plating and then throughout the culture period. […] These cells are monocytic, but differentiate into macrophage-like cells in the presence of phorbol-12-myristate-13-acetate (PMA) (Murao et al., 1983; Rovera et al., 1979), or into neutrophils in the presence of DMSO (Collins et al., 1975). […] These changes included adhesion and altered cell shape. No change in UMP-CMP kinase expression was detected, however, when assayed by RT-PCR. […] Similarly, no change was detected after DMSO treatment.
Because the cDNA had been cloned from a macrophage library, it was also considered possible that UMP-CMP kinase expression might be developmentally regulated as monocytes proceed toward the macrophage phenotype. To evaluate this possibility, Human monocytes were isolated and cultured for 10 days as they differentiated into macrophages. […] In order to confirm this conclusion, HL-60 cells were employed. […] Similarly, no change in this message was detected after DMSO treatment (data not shown).

[4] = varying Mg^2+ concentrations, FIG. 4

O=c1ccn([C@@H]2O[C@H](COP(=O)(O)O)[C@@H](O)[C@H]2O)c(=O)[nH]1 [UMP]
phosphorylation of the NMP as substrate (phosphate acceptor), in words [1]: prefers
phosphorylation by the kinase as reported by Van Rompay et al. [2]: efficiently phosphorylated

Nc1nc2c(ncn2[C@@H]2O[C@H](COP(=O)(O)O)[C@@H](O)[C@H]2O)c(=O)[nH]1 [GMP]
phosphorylation of the NMP as substrate (phosphate acceptor), in words [1]: unable to phosphorylate

Nc1ccn([C@@H]2O[C@H](COP(=O)(O)O)[C@@H](O)[C@H]2O)c(=O)n1 [CMP, Cytidine Monophosphate]
reaction efficiency in the presence of CMP relative to UMP [1]: three-fold greater reaction efficiency
phosphorylation of the NMP as substrate (phosphate acceptor), in words [1]: prefers
phosphorylation by the kinase as reported by Van Rompay et al. [2]: efficiently phosphorylated

Nc1ccn([C@H]2C[C@H](O)[C@@H](COP(=O)(O)O)O2)c(=O)n1 [dCMP]
phosphorylation by the kinase as reported by Van Rompay et al. [2]: efficiently phosphorylated

O=c1ccn([C@@H]2O[C@H](COP(=O)(O)OP(=O)(O)OP(=O)(O)O)[C@@H](O)[C@H]2O)c(=O)[nH]1 [UTP]
ability of the NTP to act as phosphate donor (CDP formed), in words ([1]; CMP as substrate, FIG. 5B): preferred as phosphate donors over CTP and GTP

Nc1ncnc2c1ncn2[C@@H]1O[C@H](COP(=O)(O)O)[C@@H](O)[C@H]1O [AMP]
phosphorylation of the NMP as substrate (phosphate acceptor), in words [1]: only slightly

Nc1ncnc2c1ncn2[C@@H]1O[C@H](COP(=O)(O)OP(=O)(O)OP(=O)(O)O)[C@@H](O)[C@H]1O [ATP]
ability of the NTP to act as phosphate donor (CDP formed), in words ([1]; CMP as substrate, FIG. 5B): preferred as phosphate donors over CTP and GTP
phosphorylation of the NMP as substrate (phosphate acceptor), in words [1]: Modest

[Mg+2] [Mg^2+]
Mg^2+ concentration giving maximal UMP-CMP kinase activity [1, 4]: 3 mM
effect of Mg^2+ on UMP-CMP kinase activity, in words [1, 4]: increases UMP-CMP kinase activity in a concentration-dependent manner

C[S+](C)[O-] [DMSO]
change in UMP-CMP kinase expression by RT-PCR [3]: no change

Nc1ccn([C@@H]2O[C@H](COP(=O)(O)O)[C@@H](O)[C@@H]2O)c(=O)n1 [CTP]
reaction efficiency as phosphate donor relative to ATP or UTP ([1]; CMP as substrate, FIG. 5B): half and approximately half

CCCCCCCCCCCCCC(=O)O[C@@H]1[C@@H](C)[C@@]2(O)[C@@H](C=C(CO)C[C@]3(O)C(=O)C(C)=C[C@@H]23)[C@@H]2C(C)(C)[C@]12OC(C)=O [PMA, phorbol-12-myristate-13-acetate]
change in UMP-CMP kinase expression by RT-PCR [3]: No change
phenotypic change of HL-60 cells [3]: altered the HL-60 cell phenotype from a suspension cell to an adherent cell; also recorded: induced phenotypic changes
